Key:
hKV1.2 = molecular target: T1, hKV1.2 (Homo sapiens, UniProt P16389); test: Whole-cell patch-clamp, hKV1.2 in transiently transfected CHO cells; assay type: cell-based; design: reduction in current amplitude, positive control: dose or concentration left out as unconfirmed; details: […] nM, KV1.2
T1 construct: GFP; expressed in transfected cells; host or cells: CHO cells (ATCC), transient transfection with Lipofectamine 2000
Protocol: (§1) CHO and human embryonic kidney (HEK 293) cells were grown in DMEM-high glucose supplemented with 10% FBS, 2 mM L-glutamine, 100 U/mL penicillin-g, and 100 μg/mL streptomycin (Invitrogen) at 37 °C in a 5% CO2 and 95% air humidified atmosphere. Cells were passaged twice per week following a 5-min incubation in PBS containing 0.2 g/L EDTA (Invitrogen, Carlsbad, CA).
(§2) CHO cells (ATCC) were transiently transfected with plasmids encoding hKV1.1, hKV1.2, hKV10.1, hKCa3.1, hTRPA1, or hNaV1.7 using Lipofectamine 2000 (Invitrogen, Carlsbad, CA) following the manufacturer’s protocol, then cultured under standard conditions. The cells were co-transfected with a plasmid encoding green fluorescent protein (GFP) at a molar ratio of 10:1 except for hKV1.1, hKV1.2, and hKCa3.1 for which GFP-tagged ion channel vectors were used. Currents were recorded 24–36 h after transfection. […] HEK 293 cells stably expressing the hKv11.1 channel (hERG, hKCNH2 gene, a kind gift from H. Wulff, University of California, Davis, CA) and mKCa1.1 channel (BKCa, hKCNMA1, a kind gift from C. Beeton, Baylor College of Medicine, Houston, TX) were used. hTRPV1 channels were expressed in a stable manner in CHO cells. Transfected cells were washed twice with 2 mL of ECS (see below) and re-plated onto 35-mm polystyrene cell culture dishes (Cellstar, Greiner Bio-One). hKV1.3 currents were recorded from activated peripheral blood mononuclear cells (PBMCs, see below) 3–4 days after activation. Human veinous blood was obtained from anonymised healthy donors. PBMCs were isolated using Histopaque1077 (Sigma-Aldrich Hungary, Budapest, Hungary) density gradient centrifugation. Cells obtained were resuspended in RPMI 1640 medium containing 10% foetal calf serum (Sigma-Aldrich Hungary, Budapest, Hungary), 100 μg/mL penicillin, 100 μg/mL streptomycin, and 2 mM L-glutamine, seeded in a 24-well culture plate at a density of 5–6 × 10^5 cells/mL, and grown in a 5% CO2 incubator at 37 °C for 3–5 days. Phytohemagglutinin A (PHA, Sigma-Aldrich Hungary, Budapest, Hungary) was added to the medium at 10 μg/mL to amplify the KV1.3 expression. Cells were washed gently twice with 2 mL of ECS for the patch-clamp experiments.
Conventional whole-cell patch-clamp electrophysiology was used to record ionic currents. Micropipettes were pulled in four stages using a Flaming Brown automatic pipette puller (Sutter Instruments, San Rafael, CA) from Borosilicate Standard Wall with Filament aluminium–silicate glass (Harvard Apparatus Co., Holliston, MA) with tip diameters between 0.5 and 1 μm and heat polished to a tip resistance of 2–8 MΩ. All measurements were carried out by using Axopatch 200B amplifier connected to a personal computer using Axon Digidata 1550A data acquisition hardware (Molecular Devices, Sunnyvale, CA). In general, the holding potential was − 120 mV. Records were discarded when a leak at the holding potential was > 10% of the peak current at the test potential. Series resistance compensation up to 70% was used to minimise voltage errors and achieve proper voltage-clamp conditions. Experiments were performed at room temperature (20–24 °C). Data were analysed using Prism 8 (GraphPad, CA, USA) and ClampFit 10.5 software (Molecular Devices Inc., Sunnyvale, CA). Before analysis, whole-cell current traces were corrected for ohmic leakage and digitally filtered with a three-point boxcar smoothing filter. For hKCa3.1, hTRPA1 and hTRPV1, the reversal potential for K^+ was determined and only those currents were analysed for which the reversal potential fell into the range of the theoretical reversal potential ± 5 mV (− 86.5 ± 5 mV for KCa3.1, and 0 ± 5 mV for hTRPA1 and hTRPV1).

hKV10.1 = test: Whole-cell patch-clamp, hKV10.1 in transiently transfected CHO cells; assay type: cell-based, human; details: 2 µM, KV10.1
Protocol: as §1
as §2, with “PBMCs were isolated using Histopaque1077 (Sigma-Aldrich Hungary, Budapest, Hungary) density gradient centrifugation. Cells obtained were resuspended in RPMI 1640 medium containing 10% foetal calf serum (Sigma-Aldrich Hungary, Budapest, Hungary), 100 μg/mL penicillin, 100 μg/mL streptomycin, and 2 mM L-glutamine, seeded in a 24-well culture plate at a density of 5–6 × 10^5 cells/mL, and grown in a 5% CO2 incubator at 37 °C for 3–5 days. Phytohemagglutinin A (PHA, Sigma-Aldrich Hungary, Budapest, Hungary) was added to the medium at 10 μg/mL to amplify the KV1.3 expression. Cells were washed gently twice with 2 mL of ECS for the patch-clamp experiments.” left out
(§3) Conventional whole-cell patch-clamp electrophysiology was used to record ionic currents. […] Data were analysed using Prism 8 (GraphPad, CA, USA) and ClampFit 10.5 software (Molecular Devices Inc., Sunnyvale, CA). […] For hKCa3.1, hTRPA1 and hTRPV1, the reversal potential for K^+ was determined and only those currents were analysed for which the reversal potential fell into the range of the theoretical reversal potential ± 5 mV (− 86.5 ± 5 mV for KCa3.1, and 0 ± 5 mV for hTRPA1 and hTRPV1).

hKV1.3 [1] = details: read-out: Kd (positive control concentration equivalent to Kd); KV1.3; no reference given; cited from earlier work
Protocol: (§4) Voltage protocols: For measurement of hKV1.1–1.3 and hKV10.1, currents, voltage steps to + 50 mV, were applied from a holding potential of − 120 mV every 15 or 30 s and the peak current was measured. Channels were activated by a series of depolarisation pulses to + 50 mV from a holding potential of − 120 mV. For KV1.1, 50-ms-long activating stimuli were used every 15 s. Due to the highly variable activation kinetics of KV1.2 [145] 200-ms-long pulses were applied every 15 s to maximise the open probability of the channel.

hKV1.1 [2] = details: read-out: Kd (positive control concentration equivalent to Kd); KV1.1; no reference given; cited from earlier work
Protocol: as §4

mKCa1.1 channel [3] = details: read-out: Kd (positive control concentration equivalent to Kd); KCa1.1; no reference given; cited from earlier work
Protocol: as §4

hKV1.3 [4] = assay type: cell-based, human
Protocol: as §2, with “Phytohemagglutinin A (PHA, Sigma-Aldrich Hungary, Budapest, Hungary) was added to the medium at 10 μg/mL to amplify the KV1.3 expression. Cells were washed gently twice with 2 mL of ECS for the patch-clamp experiments.” left out
as §3

hKV1.1 [5] = assay type: cell-based, human
Protocol: as §1
as §2, with “PBMCs were isolated using Histopaque1077 (Sigma-Aldrich Hungary, Budapest, Hungary) density gradient centrifugation. Cells obtained were resuspended in RPMI 1640 medium containing 10% foetal calf serum (Sigma-Aldrich Hungary, Budapest, Hungary), 100 μg/mL penicillin, 100 μg/mL streptomycin, and 2 mM L-glutamine, seeded in a 24-well culture plate at a density of 5–6 × 10^5 cells/mL, and grown in a 5% CO2 incubator at 37 °C for 3–5 days. Phytohemagglutinin A (PHA, Sigma-Aldrich Hungary, Budapest, Hungary) was added to the medium at 10 μg/mL to amplify the KV1.3 expression. Cells were washed gently twice with 2 mL of ECS for the patch-clamp experiments.” left out
as §3

mKCa1.1 channel [6] = assay type: cell-based
Protocol: as §1
as §2, with “PBMCs were isolated using Histopaque1077 (Sigma-Aldrich Hungary, Budapest, Hungary) density gradient centrifugation. Cells obtained were resuspended in RPMI 1640 medium containing 10% foetal calf serum (Sigma-Aldrich Hungary, Budapest, Hungary), 100 μg/mL penicillin, 100 μg/mL streptomycin, and 2 mM L-glutamine, seeded in a 24-well culture plate at a density of 5–6 × 10^5 cells/mL, and grown in a 5% CO2 incubator at 37 °C for 3–5 days. Phytohemagglutinin A (PHA, Sigma-Aldrich Hungary, Budapest, Hungary) was added to the medium at 10 μg/mL to amplify the KV1.3 expression. Cells were washed gently twice with 2 mL of ECS for the patch-clamp experiments.” left out
as §3

T1 sequence (P16389 whole entry): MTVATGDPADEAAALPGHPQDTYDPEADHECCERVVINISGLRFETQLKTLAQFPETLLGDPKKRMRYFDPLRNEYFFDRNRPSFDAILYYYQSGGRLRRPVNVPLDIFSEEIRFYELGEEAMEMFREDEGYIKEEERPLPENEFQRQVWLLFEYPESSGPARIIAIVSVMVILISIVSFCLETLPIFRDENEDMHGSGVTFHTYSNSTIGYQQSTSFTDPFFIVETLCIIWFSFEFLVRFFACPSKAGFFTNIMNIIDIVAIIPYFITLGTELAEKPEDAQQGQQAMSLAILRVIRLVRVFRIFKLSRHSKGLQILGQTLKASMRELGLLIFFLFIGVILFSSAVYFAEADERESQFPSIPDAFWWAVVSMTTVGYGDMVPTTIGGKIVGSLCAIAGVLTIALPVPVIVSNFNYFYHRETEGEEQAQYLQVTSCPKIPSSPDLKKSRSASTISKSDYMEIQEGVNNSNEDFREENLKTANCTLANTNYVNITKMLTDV

Compound: charybdotoxin [ChTx, reference compound]
- reduction in current amplitude, positive control (hKV1.2): ~50%

Compound: COc1ccc(CCN2CCC(Nc3nc4ccccc4n3Cc3ccc(F)cc3)CC2)cc1 [Astemizole, astemizole, reference compound]
- reduction in current amplitude, positive control (hKV10.1): ~50%

Compound: CC[N+](CC)(CC)CC [TEA+, tetraethylammonium, reference compound]
- Kd (hKV1.3 [1]): 10 mM
- Kd (hKV1.1 [2]): 0.3 mM
- Kd (mKCa1.1 channel [3]): 10 mM
- reduction in current amplitude, positive control (hKV1.3 [4]): ~50%
- reduction in current amplitude, positive control (hKV1.1 [5]): ~50%
- reduction in current amplitude, positive control (mKCa1.1 channel [6]): ~50%

From publication PMC10210398, “Genomic, functional and structural analyses elucidate evolutionary innovation within the sea anemone 8 toxin family” (BMC Biology, 2023)
